Like-named read-outs stand apart in the source and are kept apart here.
Columns and labels:
[1] = Observed clearance ratio and fraction reabsorbed (Freab, Freab′) calculated from CLR, fu,p and GFR; conditions: for Freab: observed/apparent, 1 - CLR/(GFR x fu,p), GFR 120 mL/min
Description: The clearance ratio was calculated from clinical data using Eqs. […] For the remaining drugs the fraction reabsorbed (Freab) was calculated using Eq.
GFR values for healthy subjects may vary as a result of biological as well as inter-individual variation and also the method of measurement. […] Individual GFR values for subjects in clinical trials databases were generally not available.
In the proposed model, the nephron is represented as five compartments, namely the glomerulus and four tubular regions, as depicted in Fig. 1. The tubular compartments in the model, listed in anatomical order starting from the glomerulus are: the proximal tubule (PT), the loop of Henle (LoH), the distal tubule (DT) and the collecting duct (CD). […] The relationship between Freab′ and Freab is shown in Eq. (11). The predicted overall Freab′ was calculated from the predicted Freab′ in each (i) tubular region (Freab,i′), as shown in Eq. (12).

[2] = Ionisation classification at pH 6.5 from pKa; assay type: physicochemical; conditions: predominant species (> 50%) at pH 6.5 from measured or calculated pKa
Description: (§1) The pKa values associated with ionisable centres identified within a given drug were used to calculate the fraction of drug ionised at pH 6.5. Drugs were then classified into groups as follows: drugs with > 50% unionised at pH 6.5 were classified as “Neutral”; drugs with > 50% ionised as mono −/di −/tri-protic acids or bases were classified as “Acid” or “Base”, respectively; “Zwitterions” were classified as drugs with > 50% ionised, with the major ionised species having no net charge; all other drugs were classified as amphoteric. […] LogD6.5 for neutral, amphoteric and zwitterion drugs were assumed to be equal to LogD7.4.

[3] = cited from earlier work
[4] = LogD7.4 octanol-buffer, shake-flask (or ACD / BioByte); conditions: pH 7.4; for logD: octanol/buffer
Description: as §1

[5] = LogD6.5 estimated from LogD7.4 and pKa; conditions: for logD: octanol/buffer
Description: as §1

[6] = Caco-2 apparent permeability (Papp), apical to basolateral, pH 6.5-7.4 gradient, efflux inhibitor cocktail; conditions: human, Caco-2, pH 6.5
Description: The assay was performed using the apical to basolateral pH gradient format of pH 6.5 to pH 7.4. […] The efflux transporter inhibitor cocktail was used to minimise the effect of efflux transporters expressed in Caco-2 cells (e.g. P-glycoprotein, BCRP and MRP2) on the estimate of apical to basolateral Papp of substrates for such transporters.

[7] = calculated from observed CLR, fu,p and GFR
[8] = healthy adult subjects, overall weighted mean of literature values, absolute (not normalised), ref Supplementary Results Table S2.1
[9] = healthy subjects, plasma and urine data from same subjects, normalised for subject weight and body surface area where necessary, ref Table S2.1
[10] = overall weighted mean of values obtained from a literature survey, ref Table S2.1

SMILES | Apparent Freab [1, 7] | Apparent Freab’ [1, 7] | CLR [3, 8] | Overall weighted mean CLR [3, 9] | CLR Observed [3, 10] | also measured
Cc1cc(=O)n(-c2ccccc2)n1C [Antipyrine] | – | – | – | – | – | Apparent Freab ([1]; human, in vivo): 0.989; Apparent Freab’ ([1]; human, in vivo): 0.997; Ionisation at pH 6.5 [2]: Neutral; CLR ([3]; human, in vivo): 1.22 mL/min; CLR Observed ([3]; human, in vivo): 1.22 mL/min; Overall weighted mean CLR ([3]; human, in vivo): 1.2 mL/min
CC(C)NCC(O)COc1ccc(CC(N)=O)cc1 (centres unmarked) [Atenolol] | -0.247 | -0.249 | – | – | – | Ionisation at pH 6.5 [2]: Base
C[C@H]1C[C@H]2[C@@H]3CCC4=CC(=O)C=C[C@]4(C)[C@@]3(F)[C@@H](O)C[C@]2(C)[C@@]1(O)C(=O)CO [Betamethasone] | 0.780 | 0.787 | 9.50 mL/min | 9.5 mL/min | 9.50 mL/min | logD [4]: 1.99; Freab [1]: 0.78; logD ([5]; pH 6.5): 1.99; Ionisation at pH 6.5 [2]: Neutral
Cn1c(=O)c2c(ncn2C)n(C)c1=O [Caffeine] | 0.987 | 0.995 | 1.06 mL/min | 1.1 mL/min | 1.06 mL/min | Freab [1]: 0.99; Freab ([1]; listed as caffeine): ≥ 0.99
CN(C)CCC(c1ccc(Cl)cc1)c1ccccn1 (centres unmarked) [Chlorpheniramine] | – | – | – | – | – | Papp A→B at 2 h [6]: 28.5 ×10⁻⁶ cm/s
CN(C)CCCC1(c2ccc(F)cc2)OCc2cc(C#N)ccc21 (centres unmarked) [Citalopram] | -0.086 | -0.087 | 65.2 mL/min | 65.2 mL/min | 65.17 mL/min | Ionisation at pH 6.5 [2]: Base
Nc1ccc(S(=O)(=O)c2ccc(N)cc2)cc1 [Dapsone] | – | – | 5.50 mL/min | 5.5 mL/min | 5.50 mL/min | Papp A→B at 2 h [6]: 49.7 ×10⁻⁶ cm/s; logD [4]: 0.85; logD ([5]; pH 6.5): 0.85; Ionisation at pH 6.5 [2]: Neutral
OC(Cn1cncn1)(Cn1cncn1)c1ccc(F)cc1F [Fluconazole] | 0.848 | 0.855 | 15.7 mL/min | 15.7 mL/min | 15.68 mL/min | Papp A→B at 2 h [6]: 36.3 ×10⁻⁶ cm/s; Freab [1]: 0.85
CC[C@@H](C(N)=O)N1CCCC1=O [Levetiracetam] | 0.636 | 0.641 | 39.4 mL/min | 39.4 mL/min | 39.35 mL/min | Papp A→B at 2 h [6]: 15.7 ×10⁻⁶ cm/s; Freab [1]: 0.64; Ionisation at pH 6.5 [2]: Neutral
CC(=O)NC[C@H]1CN(c2ccc(N3CCOCC3)c(F)c2)C(=O)O1 [Linezolid] | 0.576 | 0.581 | 39.5 mL/min | 39.5 mL/min | 39.54 mL/min | Freab [1]: 0.58
Cc1ncc([N+](=O)[O-])n1CCO [Metronidazole] | 0.918 | 0.925 | 9.64 mL/min | 9.6 mL/min | 9.64 mL/min | Papp A→B at 2 h [6]: 64.7 ×10⁻⁶ cm/s; Freab [1]: 0.92; Ionisation at pH 6.5 [2]: Neutral
Cc1cccc(C)c1OCC(C)N (centres unmarked) [Mexiletine] | -0.252 | -0.254 | 71.6 mL/min | 71.6 mL/min | 71.61 mL/min | –
COc1c(N2C[C@@H]3CCCN[C@@H]3C2)c(F)cc2c(=O)c(C(=O)O)cn(C3CC3)c12 [Moxifloxacin] | – | – | – | – | – | Ionisation at pH 6.5 [2]: Zwitterion
C[C@]12C=CC(=O)C=C1CC[C@@H]1[C@@H]2[C@@H](O)C[C@@]2(C)[C@H]1CC[C@]2(O)C(=O)CO [Prednisolone] | 0.099 | 0.100 | 34.3 mL/min | 34.3 mL/min | 34.30 mL/min | Freab [1]: 0.10; LogD6.5 ([5]; calculated from pKa and LogD7.4): […]; Ionisation at pH 6.5 [2]: Neutral
CCCc1cc(=O)[nH]c(=S)[nH]1 [Propylthiouracil] | 0.833 | 0.840 | 3.20 mL/min | 3.2 mL/min | 3.20 mL/min | Freab [1]: 0.83
CCN(CC)CCNC(=O)c1ccc(NS(C)(=O)=O)cc1 [Sematilide] | – | – | – | 262.0 mL/min | – | –
N[C@@H](CC(=O)N1CCn2c(nnc2C(F)(F)F)C1)Cc1cc(F)c(F)cc1F [Sitagliptin] | – | – | – | 371.2 mL/min | – | –
Cc1cn([C@@H]2C[C@@H](O)[C@H](CO)O2)c(=O)[nH]c1=O [Telbivudine] | – | – | – | 116.7 mL/min | – | –

SMILES | Apparent Freab [1, 7] | Apparent Freab’ [1, 7] | CLR [3, 8] | Overall weighted mean CLR [3, 9] | CLR Observed [3, 10] | also measured
CC1CN(c2cc3c(cc2F)c(=O)c(C(=O)O)cn3-c2ccc(F)cc2F)CCN1 (centres unmarked) [Temafloxacin] | – | – | – | 122.5 mL/min | – | –
CO[C@@]1(NC(=O)C(C(=O)O)c2ccsc2)C(=O)N2[C@@H](C(=O)O)C(C)(C)S[C@@H]21 (some centres unmarked) [Temocillin] | – | – | – | 39.8 mL/min | – | –
C[C@H](Cn1cnc2c(N)ncnc21)OCP(=O)(O)O [Tenofovir] | – | – | – | 220.0 mL/min | – | –
CC(CC(c1ccccc1)c1ccccc1)NC(C)(C)C (centres unmarked) [Terodiline] | – | – | – | 11.1 mL/min | – | –
CN(C)[C@@H]1C(O)=C(C(N)=O)C(=O)[C@@]2(O)C(O)=C3C(=O)c4c(O)cccc4[C@@](C)(O)[C@H]3C[C@@H]12 [Tetracycline] | 0.053 | 0.053 | 86.4 mL/min | 86.4 mL/min | 86.38 mL/min | Papp A→B at 2 h [6]: 1.1 ×10⁻⁶ cm/s; Freab [1]: 0.05
Cn1c(=O)c2[nH]cnc2n(C)c1=O [Theophylline] | – | – | 5.50 mL/min | 5.5 mL/min | 5.50 mL/min | LogD7.4 [4]: − 0.09; LogD6.5 ([5]; pH 6.5): − 0.06; Ionisation at pH 6.5 [2]: Neutral
CC(C)(C)NC[C@H](O)COc1nsnc1N1CCOCC1 [Timolol] | – | – | – | 125.1 mL/min | – | –
CCS(=O)(=O)CCn1c([N+](=O)[O-])cnc1C [Tinidazole] | – | – | – | 11.3 mL/min | – | –
Clc1ccc2nsnc2c1NC1=NCCN1 [Tizanidine] | – | – | – | 66.2 mL/min | – | –
C[C@@H](O)[C@H]1C(=O)N2C(C(=O)O)=C(S[C@H]3C[C@@H](C(=O)N4CC[C@H](NC(=O)CNC(=N)N)C4)N(C)C3)[C@H](C)[C@H]12 [Tomopenem] | – | – | – | 77.7 mL/min | – | –
COc1cc(Cc2cnc(N)nc2N)cc(OC)c1OC [Trimethoprim] | – | – | – | 78.2 mL/min | – | –
CCCC(CCC)C(=O)O [Valproic Acid] | – | – | – | 0.2 mL/min | – | –
CCCCC(=O)N(Cc1ccc(-c2ccccc2-c2nnn[nH]2)cc1)[C@H](C(=O)O)C(C)C [Valsartan] | – | – | – | 11.2 mL/min | – | –
c1cnc2cc3c(cc2n1)[C@@H]1CNC[C@H]3C1 [Varenicline] | – | – | – | 118.6 mL/min | – | –
CC(=O)N[C@H]1[C@H]([C@H](O)[C@H](O)CO)OC(C(=O)O)=C[C@@H]1N=C(N)N [Zanamivir] | – | – | – | 89.1 mL/min | – | –
Cc1cn([C@H]2C[C@H](N=[N+]=[N-])[C@@H](CO)O2)c(=O)[nH]c1=O [Zidovudine] | – | – | – | 258.1 mL/min | – | –
CN1CCN(C(=O)OC2c3nccnc3C(=O)N2c2ccc(Cl)cn2)CC1 (centres unmarked) [Zopiclone] | – | – | – | 13.0 mL/min | – | –

Reference: article PMC5074076, “Novel minimal physiologically-based model for the prediction of passive tubular reabsorption and renal excretion clearance” (European Journal of Pharmaceutical Sciences, 2016)
